# Laboratory results reported in PubChem BioAssay AID250 (DTP/NCI, 2004).
# “And” between values parts separate entries of the source, which are not always exact repeats. Equal values may be shown once. Inconclusive results and toxic doses are left out.
# Tested on: BDF1 mice, L1210 leukemia sc, survival T/C
# Experiment: NCI In Vivo Anticancer Drug Screen. Data for tumor model L1210 Leukemia (subcutaneous) in B6D2F1 (BDF1) mice
# Details: higher = longer survival
# Procedure, shortened: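 Transplantable tumor-bearing mice; survival or tumor size recorded; result = T/C, treated vs vehicle control.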
# [1] = endpoint: mean survival time, dose: 10.0 mg/kg/injection, schedule: Q01DX009 (ip), vehicle: saline
smiles,measurement,setting,value
CCC(C)SC1=NC=NC2=NC=NC21 (centres undefined),T/C,"endpoint: median survival time, dose: 38.9 mg/kg/injection, schedule: Q01DX Z (sc), vehicle: methylcellulose (MC)",109 % of control
same,T/C,"endpoint: median survival time, dose: 108.0 mg/kg/injection, schedule: Q01DX Z (sc), vehicle: methylcellulose (MC)",150 % of control
same,T/C,"endpoint: median survival time, dose: 500.0 mg/kg/injection, schedule: Q01DX Z (sc), vehicle: methylcellulose (MC)",100 % of control
same,T/C,"endpoint: median survival time, dose: 833.0 mg/kg/injection, schedule: Q01DX Z (sc), vehicle: methylcellulose (MC)",100 % of control
ClCCN(CCCl)CCNc1ccnc2cc(Cl)ccc12,T/C,"endpoint: median survival time, dose: 1.08 mg/kg/injection, schedule: Q01DX Z (sc), vehicle: water",100 % of control
same,T/C,"endpoint: median survival time, dose: 8.4 mg/kg/injection, schedule: Q01DX Z (sc), vehicle: water",100 % of control
same,T/C,"endpoint: median survival time, dose: 23.0 mg/kg/injection, schedule: Q01DX Z (sc), vehicle: water",100 % of control
same,T/C,"endpoint: median survival time, dose: 39.0 mg/kg/injection, schedule: Q01DX Z (sc), vehicle: water",100 % of control
same,T/C,"endpoint: median survival time, dose: 65.0 mg/kg/injection, schedule: Q01DX Z (sc), vehicle: olive oil, sesame oil, peanut oil",100 % of control
COc1cc(NS(C)(=O)=O)ccc1Nc1c2ccccc2nc2ccccc12,T/C,"endpoint: mean survival time, dose: 0.75 mg/kg/injection, schedule: Q01DX009 (ip), vehicle: saline",97 % of control
same,T/C,"endpoint: mean survival time, dose: 1.25 mg/kg/injection, schedule: Q01DX009 (ip), vehicle: saline",100 % of control
same,T/C,"endpoint: mean survival time, dose: 1.5 mg/kg/injection, schedule: Q01DX009 (ip), vehicle: saline",99 % of control
same,T/C,"endpoint: mean survival time, dose: 2.5 mg/kg/injection, schedule: Q01DX009 (ip), vehicle: saline",104 % of control
same,T/C,"endpoint: mean survival time, dose: 3.0 mg/kg/injection, schedule: Q01DX009 (ip), vehicle: saline",110 % of control
same,T/C,"endpoint: mean survival time, dose: 5.0 mg/kg/injection, schedule: Q01DX009 (ip), vehicle: saline",103 % of control and 112 % of control
same,T/C,"endpoint: mean survival time, dose: 6.0 mg/kg/injection, schedule: Q01DX009 (ip), vehicle: saline",110 % of control
same,T/C,[1],100 % of control
same,T/C,"endpoint: median survival time, dose: 0.5 mg/kg/injection, schedule: Q01DX009 (ip), vehicle: other",103 % of control
same,T/C,"endpoint: median survival time, dose: 1.0 mg/kg/injection, schedule: Q01DX009 (ip), vehicle: other",102 % of control
same,T/C,"endpoint: median survival time, dose: 2.0 mg/kg/injection, schedule: Q01DX009 (ip), vehicle: other",103 % of control
same,T/C,"endpoint: median survival time, dose: 4.0 mg/kg/injection, schedule: Q01DX009 (ip), vehicle: other",118 % of control
Nc1nc(=S)c2ncn(C3CC(O)C(CO)O3)c2[nH]1 (centres undefined),T/C,"endpoint: median survival time, dose: 9.0 mg/kg/injection, schedule: Q02DX005 (sc), vehicle: saline",160 % of control
same,T/C,"endpoint: median survival time, dose: 12.5 mg/kg/injection, schedule: Q02DX005 (sc), vehicle: saline",177 % of control
same,T/C,"endpoint: median survival time, dose: 18.0 mg/kg/injection, schedule: Q02DX005 (sc), vehicle: saline",162 % of control
same,T/C,"endpoint: median survival time, dose: 25.0 mg/kg/injection, schedule: Q02DX005 (sc), vehicle: saline",177 % of control
same,T/C,"endpoint: median survival time, dose: 37.0 mg/kg/injection, schedule: Q02DX005 (sc), vehicle: saline",152 % of control
same,T/C,"endpoint: median survival time, dose: 50.0 mg/kg/injection, schedule: Q01DX009 (sc), vehicle: saline",100 % of control and 103 % of control
same,T/C,"endpoint: median survival time, dose: 50.0 mg/kg/injection, schedule: Q02DX005 (sc), vehicle: saline",177 % of control
same,T/C,"endpoint: median survival time, dose: 100.0 mg/kg/injection, schedule: Q01DX009 (sc), vehicle: saline",105 % of control and 108 % of control
same,T/C,"endpoint: median survival time, dose: 100.0 mg/kg/injection, schedule: Q02DX005 (sc), vehicle: saline",150 % of control
same,T/C,"endpoint: median survival time, dose: 150.0 mg/kg/injection, schedule: Q02DX005 (sc), vehicle: saline",120 % of control
same,T/C,"endpoint: median survival time, dose: 200.0 mg/kg/injection, schedule: Q01DX009 (sc), vehicle: saline",122 % of control
same,T/C,"endpoint: median survival time, dose: 400.0 mg/kg/injection, schedule: Q01DX009 (sc), vehicle: saline",155 % of control
same,T/C,"endpoint: median survival time, dose: 600.0 mg/kg/injection, schedule: Q02DX005 (sc), vehicle: saline",158 % of control
Cc1cccc2c(Nc3ccc(NS(C)(=O)=O)cc3)c3ccccc3nc12,T/C,[1],103 % of control
same,T/C,"endpoint: mean survival time, dose: 20.0 mg/kg/injection, schedule: Q01DX009 (ip), vehicle: saline",107 % of control
same,T/C,"endpoint: mean survival time, dose: 40.0 mg/kg/injection, schedule: Q01DX009 (ip), vehicle: saline",106 % of control
same,T/C,"endpoint: mean survival time, dose: 80.0 mg/kg/injection, schedule: Q01DX009 (ip), vehicle: saline",100 % of control
same,T/C,"endpoint: median survival time, dose: 10.0 mg/kg/injection, schedule: Q01DX009 (ip), vehicle: saline with Tween-80",106 % of control
same,T/C,"endpoint: median survival time, dose: 20.0 mg/kg/injection, schedule: Q01DX009 (ip), vehicle: saline with Tween-80",112 % of control
O=P(N1CCOCC1)(N1CC1)N1CC1,T/C,"endpoint: median survival time, dose: 5.0 mg/kg/injection, schedule: Q01DX Z (sc), vehicle: saline",96 % of control and 110 % of control
same,T/C,"endpoint: median survival time, dose: 8.4 mg/kg/injection, schedule: Q01DX Z (sc), vehicle: saline",100 % of control and 110 % of control
same,T/C,"endpoint: median survival time, dose: 23.0 mg/kg/injection, schedule: Q01DX Z (sc), vehicle: saline",160 % of control and 164 % of control
same,T/C,"endpoint: median survival time, dose: 65.0 mg/kg/injection, schedule: Q01DX Z (sc), vehicle: saline",112 % of control
Cc1c(CNc2ccc(C(=O)NC(CC(=O)O)C(=O)O)cc2)ccc2nc(N)nc(N)c12 (centres undefined),T/C,"endpoint: median survival time, dose: 0.05 mg/kg/injection, schedule: Q01DX017 (sc), vehicle: sodium bicarbonate",116 % of control
same,T/C,"endpoint: median survival time, dose: 1.8 mg/kg/injection, schedule: Q04DX005 (sc), vehicle: sodium bicarbonate",229 % of control
same,T/C,"endpoint: median survival time, dose: 3.0 mg/kg/injection, schedule: Q04DX005 (sc), vehicle: sodium bicarbonate",233 % of control
same,T/C,"endpoint: median survival time, dose: 5.0 mg/kg/injection, schedule: Q04DX005 (sc), vehicle: sodium bicarbonate",170 % of control
same,T/C,"endpoint: median survival time, dose: 8.4 mg/kg/injection, schedule: Q04DX005 (sc), vehicle: sodium bicarbonate",150 % of control
same,T/C,"endpoint: median survival time, dose: 14.0 mg/kg/injection, schedule: Q01DX017 (sc), vehicle: sodium bicarbonate",95 % of control
same,T/C,"endpoint: median survival time, dose: 14.0 mg/kg/injection, schedule: Q04DX005 (sc), vehicle: sodium bicarbonate",116 % of control
same,T/C,"endpoint: median survival time, dose: 23.0 mg/kg/injection, schedule: Q01DX017 (sc), vehicle: sodium bicarbonate",87 % of control
CN(C)c1ccc(/C=C/c2cc[n+](C)c3ccccc23)cc1,T/C,"endpoint: median survival time, dose: 0.65 mg/kg/injection, schedule: Q01DX Z (sc), vehicle: methylcellulose (MC)",109 % of control
same,T/C,"endpoint: median survival time, dose: 1.08 mg/kg/injection, schedule: Q01DX Z (sc), vehicle: methylcellulose (MC)",109 % of control
same,T/C,"endpoint: median survival time, dose: 1.8 mg/kg/injection, schedule: Q01DX Z (sc), vehicle: methylcellulose (MC)",109 % of control
same,T/C,"endpoint: median survival time, dose: 3.0 mg/kg/injection, schedule: Q01DX Z (sc), vehicle: methylcellulose (MC)",109 % of control
CO[C@H](C(=O)[C@@H](O)[C@@H](C)O)[C@@H]1Cc2cc3cc(OC4CC(OC5CC(O)C(O)C(C)O5)C(O)C(C)O4)c(C)c(O)c3c(O)c2C(=O)[C@H]1OC1CC(OC2CC(OC3CC(C)(O)C(O)C(C)O3)C(O)C(C)O2)C(O)C(C)O1 (some centres undefined),T/C,"endpoint: median survival time, dose: 0.12 mg/kg/injection, schedule: Q01DX009 (ip), vehicle: water",105 % of control
same,T/C,"endpoint: median survival time, dose: 0.12 mg/kg/injection, schedule: Q01DX009 (sc), vehicle: water",103 % of control
same,T/C,"endpoint: median survival time, dose: 0.25 mg/kg/injection, schedule: Q01DX009 (ip), vehicle: water",94 % of control
same,T/C,"endpoint: median survival time, dose: 0.25 mg/kg/injection, schedule: Q01DX009 (sc), vehicle: water",100 % of control and 103 % of control
same,T/C,"endpoint: median survival time, dose: 0.5 mg/kg/injection, schedule: Q01DX009 (sc), vehicle: water",95 % of control and 110 % of control
same,T/C,"endpoint: median survival time, dose: 1.0 mg/kg/injection, schedule: Q01DX009 (ip), vehicle: water",93 % of control
same,T/C,"endpoint: median survival time, dose: 1.0 mg/kg/injection, schedule: Q01DX009 (sc), vehicle: water",101 % of control
same,T/C,"endpoint: median survival time, dose: 2.0 mg/kg/injection, schedule: Q01DX009 (sc), vehicle: water",96 % of control
